From patent US10501473B2, “Fused heterocyclic ring compounds and method of treating retinal disease using same” (THE INDUSTRY & ACADEMIC COOPERATION IN CHUNGNAM NATIONAL …, priority 2014, dated 2019) come the findings set out here.

Assay [1] concerns RGC-5 (rat ganglion cell). Nature of the assay: Retinal nerve protection under oxygen-glucose deprivation (OGD), LDH assay. Format: cell-based. The settings on record: RGC-5, OGD 15 hours, compound 20 μM, DMSO control = 100%. Here is the method: The following experiment was performed to evaluate the protective effect of the compounds of examples of the invention on the retinal nerve under oxygen-glucose deprivation condition.
The retinal ganglion cell line RGC-5 (rat ganglion cell) was cultured in DMEM (Dulbecco's modified Eagle's medium) supplemented with 10% FBS (fetal bovine serum) and 1% penicillin/streptomycin. The cells were distributed in a 96-well plate at the density of 8×10^3 cells/well, followed by culture in a 37° C., CO2 incubator for 12 hours. The cells were washed with PBS once and the medium was replaced with glucose free DMEM. The cells were treated with either DMSO (0.1%) alone (control) or with the compounds of examples (20 μM) shown in Table 3, followed by culture in an anaerobic incubator (10% H2, 5% CO2, 85% N2, 37° C., chamber (ThermoForma, USA)) for 15 hours to induce cell death.
The level of cell death was measured by LDH (lactate dehydrogenase, Roche) assay. The LDH assay is a method for measuring the activity of LDH released from the damaged cells into the culture medium. NAD^+ was reduced to NADH and H^+ by LDH, and the bond of tetrazolium salt INT ring was cleaved by diaphorase to form formazan. Absorbance of the formazan was measured at 490 nm by using Victor 3 (PerkinElmer). The absorbance reflects the amount of dead cells.
The level of the control LDH under oxygen-glucose deprivation condition was regarded as 100%, and the level of LDH in the cell group cultured in normal medium (10% FBS, DMEM) for the same time was regarded as 0%. Based on that, the levels of LDH of the cell groups treated with the compounds of the invention under oxygen-glucose deprivation condition were converted into the relative ratio of cell death. The compounds of examples of the invention were treated to wells, each compound for three wells, and then each experiment was performed in triplicate.

Assay [2] deals with RIPK1 (receptor-interacting serine/threonine-protein kinase 1) (Homo sapiens (Human), UniProt Q13546). Kind of assay: RIPK1 inhibitory activity, autophosphorylation of immuno-precipitated RIPK1 with [32P]γ-ATP. Type of assay: biochemical. The following applies: for activity at 100 µM: compound 100 μM, remaining RIPK1 phosphorylation; for inhibition at 100 µM: Table 2, 100 μM. Here is the method: The following experiment was performed to evaluate RIPK1 (receptor-interacting serine/threonine-protein kinase 1) inhibitory activity of the compounds of examples of the invention.
RIPK1 enzyme immuno-precipitated in HEK293 (Human Embryonic Kidney 293) cell lysate was used as kinase. The experiment was performed according to the method described in Cell. 12; 137(6):1112-23(2009). RIPK1 protein was over-expressed in HEK293 cell line, to which lysis buffer (50 mM Tris-Cl [pH 8.0], 150 mM NaCl, 1 mM EDTA, 1% NP-40, 0.4 mM phenylmethylsulfonyl fluoride (PMSF)) was added for cell lysis. Centrifugation was performed at 13,000 rpm for 10 minutes to separate the supernatant. RIPK1 monoclonal antibody (610459, BD Bioscience) and A/G agarose beads (sc-2003, Santa Cruz Biotechnology) were added thereto, followed by immuno-precipitation in a 4° C. rotator for 12 hours.
The immune complex was washed with lysis buffer twice and then washed with kinase assay buffer (20 mM HEPES [pH7.6], 2 mM DTT, 1 mM NaF, 1 mM Na3Vo4, 20 mM β-glycerophosphate, 20 mM PNPP, 20 mM MgCl2, 20 mM MnCl2, 1 mM Benzamidie, and 1 mM EDTA) lastly. Kinase assay buffer and the compound were added to the RIPK1 immuno-precipitate, followed by reaction in a 24° C. constant-temperature water bath for 15 minutes. Additional reaction was induced for 30 minutes at 30° C. after 100 μM of ATP and 10 μCi[^32P] γ-ATP were added thereto. The reaction mixture was washed with kinase assay buffer once, to which protein loading buffer was added, followed by heating at 100° C. for 3 minutes. The reaction mixture was then loaded on 8% SDS-PAGE gel. Radioactive image of the phosphorylated RIPK1 was detected with FLA-7000 (GE healthcare). The image Quant TL program was used for the quantification.

Sequence of RIPK1 (receptor-interacting serine/threonine-protein kinase 1) (Q13546 whole entry, species assumed): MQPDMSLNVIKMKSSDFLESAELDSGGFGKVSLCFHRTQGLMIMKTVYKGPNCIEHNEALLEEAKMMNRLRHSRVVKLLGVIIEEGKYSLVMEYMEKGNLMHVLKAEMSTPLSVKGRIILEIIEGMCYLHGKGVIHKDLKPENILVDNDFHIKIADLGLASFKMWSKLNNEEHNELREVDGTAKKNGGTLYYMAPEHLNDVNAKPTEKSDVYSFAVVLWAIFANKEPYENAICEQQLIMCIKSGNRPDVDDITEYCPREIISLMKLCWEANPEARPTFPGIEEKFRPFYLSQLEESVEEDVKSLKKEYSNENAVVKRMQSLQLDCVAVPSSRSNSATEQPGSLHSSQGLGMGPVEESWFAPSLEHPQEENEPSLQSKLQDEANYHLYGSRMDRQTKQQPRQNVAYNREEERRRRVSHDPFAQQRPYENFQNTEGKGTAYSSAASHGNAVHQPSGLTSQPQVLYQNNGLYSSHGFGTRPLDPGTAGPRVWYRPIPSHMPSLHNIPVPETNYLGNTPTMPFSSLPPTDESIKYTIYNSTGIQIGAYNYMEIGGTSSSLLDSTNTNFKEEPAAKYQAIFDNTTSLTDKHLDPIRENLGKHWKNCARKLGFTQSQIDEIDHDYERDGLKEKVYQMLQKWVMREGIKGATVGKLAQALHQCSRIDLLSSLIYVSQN

As for `O=C(c1cc2c(-c3ccc4[nH]ccc4c3)cccc2s1)N1CCOCC1` [Example 9, (4-(1H-indole-5-yl)benzo[b]thiophene-2-yl)(morpholino)methanone], the “Death of retinal nerve cell (%)” value in assay [1] was 64.6 ± 9.5%. In assay [2], the activity at 100 µM is 76 ± 33.9%.

As for `O=C(c1cc2ccc3ccccc3c2s1)N1CCOCC1` [Example 6, morpholino(naphtho[1,2-b]thiophene-2-yl)methanone], in assay [1], the “Death of retinal nerve cell (%)” value is recorded as 30.7 ± 1.06%. Moreover, in assay [2], the inhibition at 100 µM was no less than 50% and the activity at 100 µM is 48.5 ± 23.3%.

As for `CC(=O)Nc1ccc(-c2cccc3sc(C(=O)N4CCOCC4)cc23)cc1` [Example 10, N-(4-(2-(morpholine-4-carbonyl)benzo[b]thiophene-4-yl)phenyl)acetamide], the “Death of retinal nerve cell (%)” value in assay [1] is 49.0 ± 7.0%. In assay [2], this molecule had an activity at 100 µM of 62.5 ± 16.8%.

Turning to `O=C(c1cc2c(NS(=O)(=O)c3ccc(F)cc3)cccc2s1)N1CCOCC1` [Example 70, 4-fluoro-N-(2-(morpholine-4-carbonyl)benzo[b]thiophene-4-yl)benzenesulfonamide], in assay [1], the “Death of retinal nerve cell (%)” value is given as 48.7 ± 10.3%. In assay [2], this molecule gave an activity at 100 µM of 65 ± 32.5%.

Regarding `O=C(c1cc2c(Cc3ccc(F)cc3F)cccc2s1)N1CCOCC1` [Example 57, (4-(2,4-difluorobenzyl)benzo[b]thiophene-2-yl)(morpholino)methanone], the “Death of retinal nerve cell (%)” value in assay [1] is given as 89.1 ± 16.9%. In addition, the activity at 100 µM in assay [2] turned out to be 20 ± 14.1%.

Take `Cl.O=C(c1cc2c(-c3ccc(F)nc3)cccc2s1)N1CCOCC1` [Example 66, (4-(6-fluoropyridine-3-yl)benzo[b]thiophene-2-yl)(morpholino)methanone hydrochloride]: the “Death of retinal nerve cell (%)” value in assay [1] was 45.2 ± 10.5%. The molecule further displayed an activity at 100 µM in assay [2] of 11.5 ± 4.9%.

Consider `O=C(c1cc2c(-c3cccc(-c4ccccc4)c3)cccc2s1)N1CCOCC1` [Example 41, (4-(biphenyl-3-yl)benzo[b]thiophene-2-yl)(morpholino)methanone], for which, in assay [1], the “Death of retinal nerve cell (%)” value came out at 58.3 ± 6.5%. Further, the activity at 100 µM in assay [2] amounted to 84.7 ± 6.4%.

On to `O=C(c1cc2cc(-c3ccc(F)cc3)ccc2s1)N1CCOCC1` [Example 40, (5-(4-fluorophenyl)benzo[b]thiophene-2-yl)(morpholino)methanone], for which, in assay [1], the “Death of retinal nerve cell (%)” value came out at 68.2 ± 11.2%. Besides, the activity at 100 µM in assay [2] is 57.5 ± 12%.

In the case of `O=C(c1cc2c(OCc3ccc(F)cc3)cccc2s1)N1CCOCC1` [Example 61, (4-(4-fluorobenzyloxy)benzo[b]thiophene-2-yl)(morpholino)methanone], the “Death of retinal nerve cell (%)” value in assay [1] stood at 53.5 ± 14.5%. In assay [2], this molecule registered an inhibition at 100 µM of no less than 50% and an activity at 100 µM of 22.5 ± 12%.

As to `O=C(c1cc2c(-c3ccc(-c4ccccc4)cc3)cccc2s1)N1CCOCC1` [Example 31, (4-(biphenyl-4-yl)benzo[b]thiophene-2-yl)(morpholino)methanone], in assay [1], the “Death of retinal nerve cell (%)” value is 81.2 ± 8.3%. Moreover, the activity at 100 µM in assay [2] was 85.2 ± 3.5%.

As for `COS(=O)c1ccc(-c2cccc3sc(C(=O)N4CCOCC4)cc23)cc1` (centres unmarked) [Example 64, methyl 4-(2-(morpholine-4-carbonyl)benzo[b]thiophene-4-yl)benzene sulfinate], the “Death of retinal nerve cell (%)” value in assay [1] is reported as 63.0 ± 17.8%. The molecule further gave an activity at 100 µM in assay [2] of 83.6 ± 12.7%.

With `Cn1cc(-c2cccc3sc(C(=O)N4CCOCC4)cc23)cn1` [Example 73, (4-(1-methyl-1H-pyrazol-4-yl)benzo[b]thiophene-2-yl)(morpholino)methanone], the “Death of retinal nerve cell (%)” value in assay [1] is reported as 62.3 ± 10.1%. In assay [2], this molecule returned an inhibition at 100 µM of no less than 50% and an activity at 100 µM of 22 ± 19.8%.

With `CN1CCN(C(=O)c2cc3c(-c4ccc(F)cc4)cccc3s2)CC1.Cl` [Example 49, (4-(4-fluorophenyl)benzo[b]thiophene-2-yl)(4-methylpiperazine-1-yl)methanone hydrochloride], the “Death of retinal nerve cell (%)” value in assay [1] was determined as 43.8 ± 13.7%. In assay [2], the inhibition at 100 µM is no less than 50% and the activity at 100 µM came to 27 ± 5.7%.

On to `O=C(c1cc2c(-c3ccc(Br)cc3)cccc2s1)N1CCOCC1` [Example 54, (4-(4-bromophenyl)benzo[b]thiophene-2-yl)(morpholino)methanone], for which, in assay [1], the “Death of retinal nerve cell (%)” value came out at 74.3 ± 5.1%. Further, the activity at 100 µM in assay [2] turned out to be 54.5 ± 37.5%.

`O=C(c1cc2c(Nc3ccc(F)cc3F)cccc2s1)N1CCOCC1` [Example 58, (4-(2,4-difluorophenylamino)benzo[b]thiophene-2-yl)(morpholino)methanone]: the “Death of retinal nerve cell (%)” value in assay [1] was determined as 89.4 ± 6.4%. In assay [2], this molecule returned an activity at 100 µM of 78.5 ± 30.4%.

As for `CCN(CC)C(=O)c1cccc2sc(C(=O)N3CCOCC3)cc12` [Example 20, N,N-diethyl-2-(morpholine-4-carbonyl)benzo[b]thiophene-4-carboxamide], the “Death of retinal nerve cell (%)” value in assay [1] was 43.6 ± 8.5%. Besides, the activity at 100 µM in assay [2] came out at 77 ± 12.5%.

Consider `O=C(c1cc2c(CCc3ccc(F)cc3)cccc2s1)N1CCOCC1` [Example 60, (4-(4-fluorophenethyl)benzo[b]thiophene-2-yl)(morpholino)methanone], for which, in assay [1], the “Death of retinal nerve cell (%)” value is 89.8 ± 10.7%. Besides, in assay [2], the inhibition at 100 µM is no less than 50% and the activity at 100 µM turned out to be 22 ± 15.6%.

As for `Nc1cccc(-c2cccc3sc(C(=O)N4CCOCC4)cc23)c1` [Example 42, (4-(3-aminophenyl)benzo[b]thiophene-2-yl)(morpholino)methanone], in assay [1], the “Death of retinal nerve cell (%)” value is 57.2 ± 11.2%. In assay [2], this molecule yielded an inhibition at 100 µM of no less than 50% and an activity at 100 µM of 35.5 ± 3.9%.

As to `O=C(c1cc2c(-c3ccc(OC(F)(F)F)cc3)cccc2s1)N1CCOCC1` [Example 45, morpholino(4-(4-(trifluoromethoxy)phenyl)benzo[b]thiophene-2-yl)methanone], the “Death of retinal nerve cell (%)” value in assay [1] is given as 89.4 ± 14.0%. Also, the activity at 100 µM in assay [2] stood at 86.7 ± 34.6%.

Turning to `O=C(c1cc2c(-c3ccc(F)cc3)cccc2s1)N1CCOC1` [Example 46, (4-(4-fluorophenyl)benzo[b]thiophene-2-yl) (oxazolidine-3-yl)methanone], in assay [1], the “Death of retinal nerve cell (%)” value is 55.4 ± 12.8%. This molecule also returned an activity at 100 µM in assay [2] of 11 ± 5.7%.

`Cn1c(C#N)ccc1-c1cccc2sc(C(=O)N3CCOCC3)cc12` [Example 72, 1-methyl-5-(2-(morpholine-4-carbonyl)benzo[b]thiophene-4-yl)-1H-pyrrole-2-carbonitrile]: the “Death of retinal nerve cell (%)” value in assay [1] came to 58.5 ± 16.1%. This molecule yielded an activity at 100 µM in assay [2] of 7 ± 8.5%.

For the molecule `O=C(O)C1COCCN1C(=O)c1cc2c(-c3ccc(F)cc3)cccc2s1` (centres unmarked) [Example 8, 4-(4-(4-fluorophenyl)benzo[b]thiophene-2-carbonyl)morpholine-3-carboxylic acid], the “Death of retinal nerve cell (%)” value in assay [1] was 52.3 ± 11.1%. Moreover, the activity at 100 µM in assay [2] stood at 88.5 ± 16.3%.

Take `O=C(c1cc2c(SCc3ccc(F)cc3)cccc2s1)N1CCOCC1` [Example 71, (4-(4-fluorobenzylthio)benzo[b]thiophene-2-yl)(morpholino)methanone]: in assay [1], the “Death of retinal nerve cell (%)” value was determined as 89.1 ± 14.9%. The molecule also yielded an activity at 100 µM in assay [2] of 87 ± 4.2%.

Consider `Cc1cc(C)c2cc(C(=O)N3CCOCC3)sc2c1` [Example 17, (4,6-dimethylbenzo[b]thiophene-2-yl)(morpholino)methanone], for which the “Death of retinal nerve cell (%)” value in assay [1] was determined as 38.5 ± 5.5%. The molecule also came in with an activity at 100 µM in assay [2] of 62.5 ± 16.8%.

In assay [2], `O=C(c1cc2c(-c3ccc(F)cc3)cncc2s1)N1CCOCC1` [Example 2, (4-(4-fluorophenyl)thieno[2,3-c]pyridine-2-yl)(morpholino)methanone] gave an inhibition at 100 µM of no less than 50% and an activity at 100 µM of 45 ± 12.7%.
